Test results from US8426420B2, “Heterocyclic pyrazole-carboxamidesas P2Y12 antagonists” (Sanofi, priority 2007, dated 2013).

What was measured:
human P2Y12 receptor = human P2Y12 receptor (Homo sapiens, UniProt Q9H244); experiment: Human P2Y12 recombinant cell membrane binding assay with 33P 2MeS-ADP; details: competition against 33P 2MeS-ADP, membranes of CHO cells with recombinant human P2Y12 receptor
Method in brief: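 CHO membranes expressing human P2Y12 (20 μg/ml stock) preincubated 15 min at RT with compound in HEPES pH 7.4 buffer, then 33P 2MeS-ADP (1.61 nM working solution) added for 20 min at RT. Bound label filtered and counted; four-point, five-fold series from 10 μM final, triplicate, four-parameter fit.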

[1] = test system: human platelet rich plasma; experiment: Inhibition of human platelet aggregation, 96-well assay; format: cell-based
Method in brief: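 ADP-induced aggregation read as 650 nm absorbance every minute for 20 min at 37 °C, with shaking between reads. PRP (~3×E8 platelets/ml, diluted with PPP, ACD-A blood from healthy volunteers) was exposed to compound for 5 min before adding a 40 μM ADP stock (15 μl into 150 μl).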

human P2Y12 receptor, sequence (Q9H244 whole entry): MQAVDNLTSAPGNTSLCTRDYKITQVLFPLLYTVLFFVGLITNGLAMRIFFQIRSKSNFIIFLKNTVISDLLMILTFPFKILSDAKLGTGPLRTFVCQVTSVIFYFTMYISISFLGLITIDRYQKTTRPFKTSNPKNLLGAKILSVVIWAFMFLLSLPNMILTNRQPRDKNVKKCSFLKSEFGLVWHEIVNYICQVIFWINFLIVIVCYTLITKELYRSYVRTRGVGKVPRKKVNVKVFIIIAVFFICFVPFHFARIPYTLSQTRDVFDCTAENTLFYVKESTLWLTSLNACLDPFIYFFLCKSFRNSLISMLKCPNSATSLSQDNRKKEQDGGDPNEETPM

Compound	IC50 (human P2Y12 receptor)	IC50 ([1]; Homo sapiens, Platelet, 20 min)	IC50 ([1]; ADP-induced aggregation, human platelet rich plasma, 96-well plates, AUC of absorbance over 20 minutes)
CCCOC(=O)N1CCN(C(=O)[C@@H](C)NC(=O)c2cc(OCC(=O)N3CCC[C@H]3C(=O)NC3CCC3)n(-c3ccccc3)n2)CC1 [Example 206, 4-[(R)-2-({5-[2-((S)-2-Cyclobutylcarbamoyl-pyrrolidin-1-yl)-2-oxo-ethoxy]-1-phenyl-1H-pyrazole-3-carbonyl}-amino)-propionyl]-piperazine-1-carboxylic acid propyl ester]	0.187 µM	0.41 µM	–
CCOC(=O)N1CCN(C(=O)[C@H](CC(=O)O)NC(=O)c2cc(OCC(=O)N3CCC[C@H]3C(=O)NCC3CC3)n(-c3cccc(F)c3)n2)CC1 [Example 77, 4-((S)-3-Carboxy-2-{[5-[2-((S)-2-cyclopropylmethyl-carbamoyl-pyrrolidin-1-yl)-2-oxo-ethoxy]-1-(3-fluoro-phenyl)-1H-pyrazole-3-carbonyl]-amino}-propionyl)-piperazine-1-carboxylic acid ethyl ester]	0.028 µM	–	0.16 µM
CCCCOC(=O)N1CCN(C(=O)[C@@H](NC(=O)c2cc(OCC(=O)N3CCC[C@H]3C(=O)NC3CCC3)n(-c3ccccc3)n2)C(C)C)CC1 [Example 222, 4-[(S)-2-({5-[2-((S)-2-Cyclobutylcarbamoyl-pyrrolidin-1-yl)-2-oxo-ethoxy]-1-phenyl-1H-pyrazole-3-carbonyl}-amino)-3-methyl-butyryl]-piperazine-1-carboxylic acid butyl ester]	0.028 µM	0.26 µM	–
O=C(O)CC[C@H](NC(=O)c1cc(OCC(=O)N2CCC[C@H]2C(=O)NCC2CC2)n(-c2ccccc2)n1)C(=O)N1CCN(C(=O)OCc2ccccc2)CC1 [Example 161, 4-[(S)-4-Carboxy-2-({5-[2-((S)-2-(cyclopropylmethyl-carbamoyl)-pyrrolidin-1-yl)-2-oxo-ethoxy]-1-phenyl-1H-pyrazole-3-carbonyl}-amino)-butyryl]-piperazine-1-carboxylic acid benzyl ester]	0.033 µM	0.24 µM	–
CCOC(=O)C(=O)NCC[C@H](NC(=O)c1cc(OCC(=O)N2CCC[C@H]2C(=O)NC2CCC2)n(-c2ccccc2)n1)C(=O)N1CCN(C(=O)OCC)CC1 [Example 96, 4-[(S)-2-({5-[2-((S)-2-Cyclobutylcarbamoyl-pyrrolidin-1-yl)-2-oxo-ethoxy]-1-phenyl-1H-pyrazole-3-carbonyl}-amino)-4-(ethoxyoxalyl-amino)-butyryl]-piperazine-1-carboxylic acid ethyl ester]	0.108 µM	0.67 µM	–
CCCCOC(=O)N1CCN(C(=O)CNC(=O)c2cc(OCC(=O)N3C[C@H](O)C[C@H]3C(=O)NC3CCC3)n(-c3ccccc3)n2)CC1 [Example 270, 4-[2-({5-[2-((2S,4R)-2-Cyclobutylcarbamoyl-4-hydroxy-pyrrolidin-1-yl)-2-oxo-ethoxy]-1-phenyl-1H-pyrazole-3-carbonyl}-amino)-acetyl]-piperazine-1-carboxylic acid butyl ester]	0.04 µM	0.017 µM	–
CCOC(=O)N1CCN(C(=O)[C@H](CCC(=O)OCC2CCCC2)NC(=O)c2cc(OCC(=O)N3CCC[C@H]3C(=O)NC3CCC3)n(-c3ccccc3)n2)CC1 [Example 138, 4-[(S)-2-({5-[2-((S)-2-Cyclobutylcarbamoyl-pyrrolidin-1-yl)-2-oxo-ethoxy]-1-phenyl-1H-pyrazole-3-carbonyl}-amino)-4-cyclopentylmethoxycarbonyl-butyryl]-piperazine-1-carboxylic acid ethyl ester]	0.083 µM	1.65 µM	–
CCOC(=O)N1CCN(C(=O)[C@H](CF)NC(=O)c2cc(OCC(=O)N3CCC[C@H]3C(=O)NC3CCC3)n(-c3ccccc3)n2)CC1 [Example 261, 4-[(R)-2-({5-[2-((S)-2-Cyclobutylcarbamoyl-pyrrolidin-1-yl)-2-oxo-ethoxy]-1-phenyl-1H-pyrazole-3-carbonyl}-amino)-3-fluoro-propionyl]-piperazine-1-carboxylic acid ethyl ester]	0.018 µM	0.06 µM	–
CCOC(=O)N1CCN(C(=O)[C@H](CCC(=O)OCOC(=O)C(C)(C)C)NC(=O)c2cc(OCC(=O)N3CCC[C@H]3C(=O)NC3CCC3)n(-c3ccccc3)n2)CC1 [Example 139, 4-[(S)-2-({5-[2-((S)-2-Cyclobutylcarbamoyl-pyrrolidin-1-yl)-2-oxo-ethoxy]-1-phenyl-1H-pyrazole-3-carbonyl}-amino)-4-(2,2-dimethyl-propionyloxymethoxycarbonyl)-butyryl]-piperazine-1-carboxylic acid ethyl ester]	0.056 µM	0.36 µM	–
CCCCOC(=O)N1CCN(C(=O)[C@H](CCCCO)NC(=O)c2cc(OCC(=O)N3CCC[C@H]3C(=O)NC3CCC3)n(-c3ccccc3)n2)CC1 [Example 213, 4-[(S)-2-({5-[2-((S)-2-Cyclobutylcarbamoyl-pyrrolidin-1-yl)-2-oxo-ethoxy]-1-phenyl-1H-pyrazole-3-carbonyl}-amino)-6-hydroxy-hexanoyl]-piperazine-1-carboxylic acid butyl ester]	0.022 µM	0.33 µM	–
CCOC(=O)N1CCN(C(=O)[C@H](CNC(C)=O)NC(=O)c2cc(OCC(=O)N3CCC[C@H]3C(=O)NC3CCC3)n(-c3ccccc3)n2)CC1 [Example 87, 4-[(S)-3-Acetylamino-2-({5-[2-((S)-2-cyclobutylcarbamoyl-pyrrolidin-1-yl)-2-oxo-ethoxy]-1-phenyl-1H-pyrazole-3-carbonyl}-amino)-propionyl]-piperazine-1-carboxylic acid ethyl ester]	0.184 µM	1.13 µM	–
O=C(O)CC[C@H](NC(=O)c1cc(OCC(=O)N2CCC[C@H]2C(=O)NC2CCC2)n(-c2ccccc2)n1)C(=O)N1CCN(C(=O)OC2CCC2)CC1 [Example 163, 4-[(S)-4-Carboxy-2-({5-[2-((S)-2-cyclobutylcarbamoyl-pyrrolidin-1-yl)-2-oxo-ethoxy]-1-phenyl-1H-pyrazole-3-carbonyl}-amino)-butyryl]-piperazine-1-carboxylic acid cyclobutyl ester]	0.013 µM	0.01 µM	–
CCOC(=O)N1CCN(C(=O)[C@H](CCNC(=O)OC)NC(=O)c2cc(OCC(=O)N3CCC[C@H]3C(=O)NC3CCC3)n(-c3ccccc3)n2)CC1 [Example 93, 4-[(S)-2-({5-[2-((S)-2-Cyclobutylcarbamoyl-pyrrolidin-1-yl)-2-oxo-ethoxy]-1-phenyl-1H-pyrazole-3-carbonyl}-amino)-4-methoxycarbonylamino-butyryl]-piperazine-1-carboxylic acid ethyl ester]	0.108 µM	0.59 µM	–
CCCCOC(=O)N1CCN(C(=O)[C@H](CCC(=O)OC)NC(=O)c2cc(OCC(=O)N3CCC[C@H]3C(=O)NC3CCC3)n(-c3ccccc3)n2)CC1 [Example 191, 4-[(S)-2-({5-[2-((S)-2-Cyclobutylcarbamoyl-pyrrolidin-1-yl)-2-oxo-ethoxy]-1-phenyl-1H-pyrazole-3-carbonyl}-amino)-4-methoxycarbonyl-butyryl]-piperazine-1-carboxylic acid butyl ester]	0.006 µM	0.38 µM	–
CCOC(=O)N1CCN(C(=O)[C@H](CCC(=O)O)NC(=O)c2cc(OCC(=O)N3CCC[C@H]3C(=O)NCC3CC3)n(-c3ccc(F)c(F)c3)n2)CC1 [Example 84, 4-((S)-4-Carboxy-2-{[5-[2-((S)-2-cyclopropylmethylcarbamoyl-pyrrolidin-1-yl)-2-oxo-ethoxy]-1-(3,4-difluoro-phenyl)-1H-pyrazole-3-carbonyl]-amino}-butyryl)-piperazine-1-carboxylic acid ethyl ester]	0.092 µM	0.55 µM	–
